Measurements: PMC9929129, “Towards Translation of PqsR Inverse Agonists: From In Vitro Efficacy Optimization to In Vivo Proof‐of‐Principle” (Advanced Science, 2023)
pIC50: −log10 of the molar value. Where two headings read alike, the source gives them in different places.

Legend:
[1] = tested on: Pseudomonas aeruginosa strain RP73; experiment: Alkylquinolone quantification, strain RP73; assay type: cell-based; settings: RP73, 17 h
Procedure: re-extracted with 0.2 M HCl and quantified photometrically (520 nm). IC50 values were determined from dose-response curves of compounds using at least six different concentrations and fitting with non-linear regression analysis (OriginPro 2017–2020, Originlab Corporation).
1.2.3 Alkylquinolone quantification
Inhibition of alkylquinolone (AQ) signal molecule biosynthesis of compound 24 was analyzed via LC-ESI-MS/MS. Extracellular concentrations of the AQs PQS (2-heptyl-3-hydroxy-4-quinolone), HHQ (2-heptyl-4-quinolone), HQNO (N-oxo-2-heptyl-4-Hydroxyquinoline), 2-AA (2-aminoacetophenone) were measured from supernatants of cultures incubated with or without compound for 17 h. 5,6,7,8-Tetradeutero-2-heptyl-4(1H)-quinolone (HHQ-d4) was added as internal standard before sample preparation. IC50 values were calculated according to the procedure of the pyocyanin assay (see above). LC-ESI-MS/MS conditions were as follows: Dionex Ultimate 3000 HPLC instrument parameters: Zorbax Eclipse XDB 80 Å C18 5 µm 4.6 x 50 mm (Agilent, Santa Clara, CA, USA); eluent A – H2O with 0.1% trifluoroacetic acid (TFA), 0.1% pentafluoropropionic acid (PFPA), 0.1% heptafluorobutyric acid (HFBA); eluent B – acetonitrile with 0.1% TFA, 0.1% PFPA, 0.1% HFBA; isocratic 50% A; flow – 0.7 mL/min. TSQ Quantum Access Max (Thermo Fisher Scientific, Waltham, MA, USA) instrument parameters: Spray voltage 3500 V, vaporizer temperature 370 °C, sheath gas pressure 35 psi, aux gas pressure 30 psi, capillary temperature 270 °C, collision pressure 1.5 mTorr, positive ionization mode. For AQ analyte reaction monitoring parameters please see Table S1.
Table S1. LC-ESI-MS/MS reaction monitoring parameters of AQ analytes in positive ionization mode. precursor product ion collision tube lens retention ion m/z m/z energy (V) offset (V) time (min)
1.2.4 Biofilm-formation assay […]
(Innvotech, Edmonton, CA). An overnight culture of PA14 was centrifuged (10 min, 5000 x g). The supernatant including extracellular polymers was removed and the pellet washed with 10 mL of LB medium. Centrifugation was repeated, the supernatant discarded, and the pellet resuspended in 5 mL of LB. OD was adjusted to 0.2. The bacteria were further diluted in LB medium, followed by addition of the target compound or DMSO control to give OD 0.1 and 1% DMSO. 150 µL were added to each well of the 96-well plate. The outer wells were used as blanks containing 150 µL of 1% DMSO in LB. Six replicates per sample were distributed evenly across the plate, with every row containing one replicate of each sample. The well plate was covered with the peg lid. One layer of parafilm was wrapped around the biofilm inoculator. The inoculator was incubated at 37 °C, static for 24 h with a beaker of H2O ensuring humidity. […]

[2] = Plasma protein binding, murine (equilibrium dialysis); assay type: in vitro ADME, mouse
Procedure: 1.4.4 Pharmacokinetic and off-target functional assays (Cyprotex)
Compound 24 was assayed at Cyprotex in functional assays for interference with important off-targets as well as important pharmacokinetic parameters. With the exception of plasma protein binding, a dose-response relationship was studied in order to calculate IC50 values.
Table S10. Information on in vitro ADMET assays performed at Cyprotex. […]
Plasma protein binding assay (human and Equilibrium dialysis […]
(§1) An increase in the number of colonies of at least two-fold over baseline (mean + SD of the vehicle control) and a dose response indicate a positive response. An […]
(§2) different from the vehicle control.
(§3) Where indicated, S9 fraction from the livers of Aroclor 1254-treated rats were included in the incubation at a final concentration of 4.5%. A NADPH-regenerating system was also included to ensure a steady supply of reducing equivalents.

[3] = molecular target: T1, Cav1.2 (L-type) human Ca ion channel (Homo sapiens, UniProt Q13936); experiment: cell-based
T1 construct: Eurofins CYL8051QP2DR
Procedure: 1.4.2 Further functional off-target assays (Eurofins)
Table S8. Compound 24 was further tested in the following functional assays at Eurofins. […]
Cav1.2 (L-type) human Ca ion channel cell based automated patch >30 µM clamp assay (CYL8051QP2DR) […]
(§4) FLIPR Assay expressed in HEK293 cells
GABAA α5/β3/γ2 ionotropic receptor (human GABRA5, GABRB3, >30 and GABRG2 genes, expressed in HEK293 cells

TRPA1 channel = molecular target: T2, TRPA1 channel (Homo sapiens, UniProt O75762); experiment: Ion channel profiling at Charles River: TRPA1; assay type: cell-based; settings: expressed in CHO cells; read-out: ESTIMATED IC50
T2 construct: host or cells: CHO cells
Procedure: (§5) 1.4.3 Ion Channel Profiling at Charles River
(§6) Table S9. Compound 24 was tested against the following ion channels at Charles River Laboratories. […]
(§7) ScreenPatch Assay Kv1.3 potassium channel (human KCNA3 gene) expressed in CHO […]
as §4
(§8) GABAA α5/β3/γ2 ionotropic receptor (human GABRA5, GABRB3, >30 and GABRG2 genes, expressed in HEK293 cells […]
TRPA1 channel (human TRPA1 gene) expressed in CHO cells >30 […]
as §1, §2, §3

TRPV4 channel = molecular target: T3, TRPV4 channel (Homo sapiens, UniProt Q9HBA0); experiment: Ion channel profiling at Charles River: TRPV4; assay type: cell-based; settings: expressed in CHO cells; read-out: ESTIMATED IC50
T3 construct: host or cells: CHO cells
Procedure: as §5, §6, §7, §4, §8, §1, §2, §3

T3 sequence (Q9HBA0 whole entry): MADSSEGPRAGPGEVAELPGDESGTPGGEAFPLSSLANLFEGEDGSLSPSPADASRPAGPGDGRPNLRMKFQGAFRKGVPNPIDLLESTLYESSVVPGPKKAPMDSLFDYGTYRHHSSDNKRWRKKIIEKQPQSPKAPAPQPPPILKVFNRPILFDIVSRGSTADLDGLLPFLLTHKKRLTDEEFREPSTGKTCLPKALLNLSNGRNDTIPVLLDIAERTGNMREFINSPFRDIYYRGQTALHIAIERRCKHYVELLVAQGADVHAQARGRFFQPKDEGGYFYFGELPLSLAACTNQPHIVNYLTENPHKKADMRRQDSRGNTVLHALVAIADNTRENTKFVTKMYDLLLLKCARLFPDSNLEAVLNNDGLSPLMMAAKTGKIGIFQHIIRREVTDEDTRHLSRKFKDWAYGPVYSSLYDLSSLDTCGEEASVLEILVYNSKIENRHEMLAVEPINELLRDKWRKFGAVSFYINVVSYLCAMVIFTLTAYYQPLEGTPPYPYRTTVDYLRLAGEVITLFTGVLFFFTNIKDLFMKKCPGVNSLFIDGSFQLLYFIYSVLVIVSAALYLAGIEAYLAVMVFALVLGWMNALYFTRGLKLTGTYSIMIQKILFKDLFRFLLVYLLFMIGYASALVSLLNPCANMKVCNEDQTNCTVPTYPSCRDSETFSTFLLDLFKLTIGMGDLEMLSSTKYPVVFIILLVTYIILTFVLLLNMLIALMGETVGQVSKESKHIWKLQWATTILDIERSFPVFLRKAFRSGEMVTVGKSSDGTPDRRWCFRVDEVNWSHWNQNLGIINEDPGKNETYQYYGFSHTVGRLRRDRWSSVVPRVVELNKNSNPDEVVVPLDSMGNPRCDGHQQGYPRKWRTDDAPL
T2 sequence (O75762 whole entry): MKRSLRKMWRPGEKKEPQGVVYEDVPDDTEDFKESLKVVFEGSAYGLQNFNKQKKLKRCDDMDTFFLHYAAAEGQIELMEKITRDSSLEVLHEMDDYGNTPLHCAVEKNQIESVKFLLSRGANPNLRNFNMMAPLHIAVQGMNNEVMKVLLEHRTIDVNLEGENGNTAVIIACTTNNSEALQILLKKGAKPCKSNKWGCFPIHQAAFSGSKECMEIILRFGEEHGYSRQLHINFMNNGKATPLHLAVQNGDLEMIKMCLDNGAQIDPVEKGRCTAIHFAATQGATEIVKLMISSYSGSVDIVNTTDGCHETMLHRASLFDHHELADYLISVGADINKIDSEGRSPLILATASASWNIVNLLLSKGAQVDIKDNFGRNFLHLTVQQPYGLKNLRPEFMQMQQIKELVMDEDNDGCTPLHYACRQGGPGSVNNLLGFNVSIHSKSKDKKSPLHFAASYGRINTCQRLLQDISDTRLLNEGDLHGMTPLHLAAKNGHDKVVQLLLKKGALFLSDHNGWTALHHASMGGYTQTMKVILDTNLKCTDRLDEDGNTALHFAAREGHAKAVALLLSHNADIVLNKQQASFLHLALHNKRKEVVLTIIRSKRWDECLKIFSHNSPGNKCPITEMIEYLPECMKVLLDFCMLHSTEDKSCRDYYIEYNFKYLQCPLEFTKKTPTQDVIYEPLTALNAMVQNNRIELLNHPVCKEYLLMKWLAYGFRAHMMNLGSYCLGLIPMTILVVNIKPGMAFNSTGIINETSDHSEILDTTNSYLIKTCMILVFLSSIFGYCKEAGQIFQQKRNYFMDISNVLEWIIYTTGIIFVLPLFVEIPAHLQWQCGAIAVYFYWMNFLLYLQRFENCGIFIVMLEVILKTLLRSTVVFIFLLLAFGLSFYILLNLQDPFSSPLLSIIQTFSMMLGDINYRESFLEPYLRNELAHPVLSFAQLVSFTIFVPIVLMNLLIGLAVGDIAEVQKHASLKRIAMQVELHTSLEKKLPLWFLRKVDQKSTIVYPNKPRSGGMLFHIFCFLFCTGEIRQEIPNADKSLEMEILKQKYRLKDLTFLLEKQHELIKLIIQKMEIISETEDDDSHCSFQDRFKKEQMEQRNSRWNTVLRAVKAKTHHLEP

With CC(C)Oc1ccc(-c2ncc(CNc3ccnc(C(F)(F)F)c3)cn2)cc1Cl [Compound 24] the pIC50 ([1]; read-out: IC50 RP73, 2‐AA biosynthesis) was 6.67, the pIC50 ([1]; read-out: IC50 RP73, HHQ biosynthesis) was 6.34 and the pIC50 ([1]; read-out: IC50 RP73, HQNO biosynthesis) was 6.64. It also gave a pIC50 ([1]; read-out: IC50 RP73, PQS biosynthesis) of 6.80, a Plasma binding murine [2] of over 99% and a pIC50 [3] of under 4.52. For the same compound, the pIC50 (TRPA1 channel) was under 4.52 and the pIC50 (TRPV4 channel) was under 4.52.
